Where two headings read alike, the source gives them in different places.
Legend:
[1] = Median lethal dose of bupivacaine (literature); type: in vivo; details: in a 350 g rat
[2] = rat, in vivo
Protocol: The presence of functional deficits in the un-injected extremity was used as a measure of the degree of systemically distributed local anesthetic (i.e., toxicity). Thermal latency (the length of time that a rat would leave his paw on the hotplate) was measured in the un-injected leg at predetermined intervals, in rats who received 10% bupivacaine LPSPs or 50% bupivacaine microspheres (FIG. 4).

[3] = adult rats; Kohane et al. 1998; cited from earlier work

CCCCN1CCCCC1C(=O)Nc1c(C)cccc1C (stereo not drawn) [bupivacaine in solution, bupivacaine]
median lethal dose [1]: 10.5 mg | signs of systemic toxicity (contralateral thermal latency) [2]: one of those rats had severe signs of systemic toxicity | median lethal dose [3]: 30 ± 5 mg/kg
